Data from the kinase profiling compilation of Christmann-Franck et al. (2016).

Experiments:
Assay in all cases: radiometric filter-binding kinase assay, Kinase HotSpot
Conditions in all cases: compound 0.5 µM; ATP 10 µM
[1] = target: MARK4 (human) (UniProt Q96L34)
[2] = target: PRKCG (human) (UniProt P05129)
[3] = target: ERBB2 (human) (UniProt P04626)
[4] = target: MAPK3 (human) (UniProt P27361)
[5] = target: GSG2 (human) (UniProt Q8TF76)
[6] = target: MAPK9 (human) (UniProt P45984)
[7] = target: CAMK2A (human) (UniProt Q9UQM7)
CAMK2A (human), sequence (Q9UQM7 whole entry, looked up): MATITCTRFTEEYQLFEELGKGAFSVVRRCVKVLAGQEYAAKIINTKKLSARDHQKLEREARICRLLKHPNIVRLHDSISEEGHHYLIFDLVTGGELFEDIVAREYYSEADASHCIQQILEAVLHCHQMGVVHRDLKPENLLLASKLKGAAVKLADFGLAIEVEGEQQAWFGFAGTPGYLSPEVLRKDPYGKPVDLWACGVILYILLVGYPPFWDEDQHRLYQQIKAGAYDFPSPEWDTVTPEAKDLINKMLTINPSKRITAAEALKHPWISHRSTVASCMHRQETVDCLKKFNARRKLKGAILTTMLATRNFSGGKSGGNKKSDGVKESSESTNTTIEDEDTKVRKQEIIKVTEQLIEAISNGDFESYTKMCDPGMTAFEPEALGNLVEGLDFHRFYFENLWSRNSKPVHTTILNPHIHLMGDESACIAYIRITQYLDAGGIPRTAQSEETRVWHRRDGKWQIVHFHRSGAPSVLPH

[8] = target: CHEK1 (human) (UniProt O14757)
[9] = target: PTK2B (human) (UniProt Q14289)
[10] = target: CDK9 CCNT1 (human) (UniProt P50750+O60563)
[11] = target: STK24 (human) (UniProt Q9Y6E0)
[12] = target: FER (human) (UniProt P16591)
[13] = target: MAPK12 (human) (UniProt P53778)
[14] = target: CSNK2A2 (human) (UniProt P19784)
CSNK2A2 (human), sequence (P19784 whole entry, looked up): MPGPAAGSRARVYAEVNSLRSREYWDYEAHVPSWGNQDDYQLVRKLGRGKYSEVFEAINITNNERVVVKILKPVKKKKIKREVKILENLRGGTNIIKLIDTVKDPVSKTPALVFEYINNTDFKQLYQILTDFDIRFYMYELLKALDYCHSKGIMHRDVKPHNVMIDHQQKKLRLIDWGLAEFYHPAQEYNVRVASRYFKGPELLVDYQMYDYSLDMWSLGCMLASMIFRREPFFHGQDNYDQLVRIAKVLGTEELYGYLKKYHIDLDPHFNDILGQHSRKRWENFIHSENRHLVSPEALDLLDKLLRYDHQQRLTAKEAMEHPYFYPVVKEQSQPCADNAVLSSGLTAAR

[15] = target: SGK2 (human) (UniProt Q9HBY8)
[16] = target: GRK4 (human) (UniProt P32298)
GRK4 (human), sequence (P32298 whole entry, looked up): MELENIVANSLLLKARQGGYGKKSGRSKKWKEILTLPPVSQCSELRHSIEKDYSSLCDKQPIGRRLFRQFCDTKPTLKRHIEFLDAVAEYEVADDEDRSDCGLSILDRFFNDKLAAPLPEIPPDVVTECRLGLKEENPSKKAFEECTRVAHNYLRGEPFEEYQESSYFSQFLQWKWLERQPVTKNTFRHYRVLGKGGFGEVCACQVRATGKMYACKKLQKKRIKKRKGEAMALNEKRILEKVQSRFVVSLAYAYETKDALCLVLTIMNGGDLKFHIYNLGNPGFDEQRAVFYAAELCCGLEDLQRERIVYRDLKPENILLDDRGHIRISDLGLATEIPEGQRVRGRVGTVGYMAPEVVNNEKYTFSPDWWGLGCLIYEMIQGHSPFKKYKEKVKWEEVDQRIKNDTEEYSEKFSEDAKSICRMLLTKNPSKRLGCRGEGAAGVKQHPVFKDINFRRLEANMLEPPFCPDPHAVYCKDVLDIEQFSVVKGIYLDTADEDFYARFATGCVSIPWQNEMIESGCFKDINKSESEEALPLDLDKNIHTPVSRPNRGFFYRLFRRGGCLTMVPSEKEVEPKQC

[17] = target: RPS6KA5 KD2 (human) (UniProt O75582)
[18] = target: PRKCI (human) (UniProt P41743)
[19] = target: EPHA8 (human) (UniProt P29322)
[20] = target: CDK4 CCND3 (human) (UniProt P30281+P11802)
[21] = target: MAPK13 (human) (UniProt O15264)
MAPK13 (human), sequence (O15264 whole entry, looked up): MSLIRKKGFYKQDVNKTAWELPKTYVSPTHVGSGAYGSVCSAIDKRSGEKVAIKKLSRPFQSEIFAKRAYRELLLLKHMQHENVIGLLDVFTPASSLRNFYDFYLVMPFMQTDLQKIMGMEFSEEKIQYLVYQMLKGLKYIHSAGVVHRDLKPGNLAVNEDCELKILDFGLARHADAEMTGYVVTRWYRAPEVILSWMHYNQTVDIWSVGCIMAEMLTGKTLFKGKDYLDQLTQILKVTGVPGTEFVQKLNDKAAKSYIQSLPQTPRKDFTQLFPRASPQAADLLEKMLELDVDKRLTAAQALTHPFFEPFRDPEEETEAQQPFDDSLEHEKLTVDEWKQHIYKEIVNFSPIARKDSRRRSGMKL

[22] = target: CSNK1A1 (human) (UniProt P48729)
[23] = target: CDK6 CCND3 (human) (UniProt P30281+Q00534)
[24] = target: GRK5 (human) (UniProt P34947)
[25] = target: CDK1 CCNA2 (human) (UniProt P06493+P20248)
[26] = target: MAPK11 (human) (UniProt Q15759)
[27] = target: PIM3 (human) (UniProt Q86V86)
[28] = target: AXL (human) (UniProt P30530)
[29] = target: FYN (human) (UniProt P06241)
FYN (human), sequence (P06241 whole entry, looked up): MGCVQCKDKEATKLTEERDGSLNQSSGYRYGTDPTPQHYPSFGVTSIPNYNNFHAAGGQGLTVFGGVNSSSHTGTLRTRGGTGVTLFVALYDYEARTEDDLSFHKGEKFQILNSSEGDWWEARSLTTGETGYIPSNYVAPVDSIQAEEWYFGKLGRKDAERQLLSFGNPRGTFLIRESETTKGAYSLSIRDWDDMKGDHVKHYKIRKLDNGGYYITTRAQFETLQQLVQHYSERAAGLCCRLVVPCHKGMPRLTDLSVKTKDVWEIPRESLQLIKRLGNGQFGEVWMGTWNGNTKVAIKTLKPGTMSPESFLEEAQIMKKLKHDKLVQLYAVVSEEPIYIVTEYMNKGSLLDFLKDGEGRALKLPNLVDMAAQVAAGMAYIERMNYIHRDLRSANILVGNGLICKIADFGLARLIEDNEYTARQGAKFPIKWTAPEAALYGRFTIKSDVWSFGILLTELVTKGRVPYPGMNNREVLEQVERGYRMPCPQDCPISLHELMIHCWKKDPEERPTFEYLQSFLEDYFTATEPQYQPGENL

[30] = target: RPS6KA4 KD2 (human) (UniProt O75676)
RPS6KA4 KD2 (human), sequence (O75676 whole entry, looked up): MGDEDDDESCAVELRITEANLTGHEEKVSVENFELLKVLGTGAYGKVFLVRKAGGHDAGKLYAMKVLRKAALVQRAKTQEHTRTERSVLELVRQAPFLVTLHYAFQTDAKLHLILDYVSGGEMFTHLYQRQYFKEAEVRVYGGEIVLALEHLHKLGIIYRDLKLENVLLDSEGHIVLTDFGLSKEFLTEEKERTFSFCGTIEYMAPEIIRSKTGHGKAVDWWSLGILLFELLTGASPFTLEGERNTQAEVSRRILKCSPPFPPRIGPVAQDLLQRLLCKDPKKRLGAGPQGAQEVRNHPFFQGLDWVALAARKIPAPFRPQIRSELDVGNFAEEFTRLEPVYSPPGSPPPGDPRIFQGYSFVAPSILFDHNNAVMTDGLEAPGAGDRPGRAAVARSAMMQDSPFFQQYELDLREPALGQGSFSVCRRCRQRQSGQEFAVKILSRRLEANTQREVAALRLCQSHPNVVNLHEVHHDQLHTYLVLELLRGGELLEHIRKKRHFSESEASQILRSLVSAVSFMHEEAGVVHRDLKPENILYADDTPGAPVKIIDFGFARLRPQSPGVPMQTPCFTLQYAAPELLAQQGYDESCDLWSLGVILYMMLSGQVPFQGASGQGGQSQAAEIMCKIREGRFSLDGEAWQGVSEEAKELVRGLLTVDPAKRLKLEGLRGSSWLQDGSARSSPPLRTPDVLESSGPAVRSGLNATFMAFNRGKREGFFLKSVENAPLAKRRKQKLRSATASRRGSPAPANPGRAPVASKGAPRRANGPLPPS

[31] = target: MAPK14 (human) (UniProt Q16539)
[32] = target: VRK1 (human) (UniProt Q99986)
[33] = target: GSK3B (human) (UniProt P49841)
[34] = target: PBK (human) (UniProt Q96KB5)
PBK (human), sequence (Q96KB5 whole entry, looked up): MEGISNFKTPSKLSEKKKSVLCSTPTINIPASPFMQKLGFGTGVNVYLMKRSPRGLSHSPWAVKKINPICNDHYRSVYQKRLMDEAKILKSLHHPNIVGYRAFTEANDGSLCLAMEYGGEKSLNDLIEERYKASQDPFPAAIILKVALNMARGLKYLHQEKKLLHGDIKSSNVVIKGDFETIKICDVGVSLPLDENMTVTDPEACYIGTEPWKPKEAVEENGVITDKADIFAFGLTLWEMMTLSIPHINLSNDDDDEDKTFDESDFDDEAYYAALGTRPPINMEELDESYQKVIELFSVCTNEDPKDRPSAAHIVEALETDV

[35] = target: FLT3 (human) (UniProt P36888)
[36] = target: RAF1 (human) (UniProt P04049)
[37] = target: RET (human) (UniProt P07949)
RET (human), sequence (P07949 whole entry, looked up): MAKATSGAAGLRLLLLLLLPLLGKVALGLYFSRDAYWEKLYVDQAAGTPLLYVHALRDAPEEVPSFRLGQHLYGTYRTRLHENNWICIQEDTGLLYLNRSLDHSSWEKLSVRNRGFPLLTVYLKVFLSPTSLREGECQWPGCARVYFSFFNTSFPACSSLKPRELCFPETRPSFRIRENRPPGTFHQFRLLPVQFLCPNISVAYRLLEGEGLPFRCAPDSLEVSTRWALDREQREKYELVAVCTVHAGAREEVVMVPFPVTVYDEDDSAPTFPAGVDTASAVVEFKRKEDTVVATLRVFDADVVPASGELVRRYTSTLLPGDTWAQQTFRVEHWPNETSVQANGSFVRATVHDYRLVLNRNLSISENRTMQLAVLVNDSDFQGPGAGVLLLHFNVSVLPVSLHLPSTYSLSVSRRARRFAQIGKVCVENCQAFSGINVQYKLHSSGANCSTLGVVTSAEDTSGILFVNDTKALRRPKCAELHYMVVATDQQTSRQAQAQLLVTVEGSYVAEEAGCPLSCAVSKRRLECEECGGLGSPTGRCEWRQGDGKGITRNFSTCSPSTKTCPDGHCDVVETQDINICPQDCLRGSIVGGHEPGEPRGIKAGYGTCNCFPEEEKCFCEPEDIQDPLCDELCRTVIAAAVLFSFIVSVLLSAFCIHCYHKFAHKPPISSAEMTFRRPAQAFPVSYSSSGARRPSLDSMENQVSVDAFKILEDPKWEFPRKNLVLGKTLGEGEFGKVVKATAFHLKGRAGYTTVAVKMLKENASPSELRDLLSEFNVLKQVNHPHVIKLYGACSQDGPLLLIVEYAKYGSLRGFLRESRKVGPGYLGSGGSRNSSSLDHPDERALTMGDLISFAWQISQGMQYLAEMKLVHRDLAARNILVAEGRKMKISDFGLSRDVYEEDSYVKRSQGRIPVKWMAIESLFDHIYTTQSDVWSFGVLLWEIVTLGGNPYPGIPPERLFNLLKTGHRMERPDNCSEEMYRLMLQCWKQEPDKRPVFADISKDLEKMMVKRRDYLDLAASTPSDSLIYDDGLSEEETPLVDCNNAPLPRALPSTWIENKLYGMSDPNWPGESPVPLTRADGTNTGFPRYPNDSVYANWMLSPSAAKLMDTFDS

[38] = target: MET (human) (UniProt P08581)
[39] = target: SGK3 (human) (UniProt Q96BR1)
[40] = target: STK4 (human) (UniProt Q13043)
[41] = target: TYK2 JH1 catalytic (human) (UniProt P29597)
[42] = target: GRK6 (human) (UniProt P43250)

MAPK9 (human), sequence (P45984 whole entry, looked up): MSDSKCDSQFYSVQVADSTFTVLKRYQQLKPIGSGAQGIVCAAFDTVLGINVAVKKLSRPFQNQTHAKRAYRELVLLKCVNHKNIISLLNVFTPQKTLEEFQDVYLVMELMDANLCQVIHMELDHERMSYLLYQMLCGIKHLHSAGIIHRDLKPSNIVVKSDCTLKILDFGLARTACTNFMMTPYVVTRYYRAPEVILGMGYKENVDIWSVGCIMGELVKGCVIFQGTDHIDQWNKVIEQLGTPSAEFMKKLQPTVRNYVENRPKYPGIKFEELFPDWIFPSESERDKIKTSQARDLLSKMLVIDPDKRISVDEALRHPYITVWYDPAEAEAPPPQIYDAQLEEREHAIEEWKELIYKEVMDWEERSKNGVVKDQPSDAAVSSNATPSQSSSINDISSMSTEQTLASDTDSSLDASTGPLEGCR

Compound: CCc1nc(-c2ccc(OC)cc2)[nH]c1-c1ccncc1
- residual activity [1]: 96.4%
- residual activity [2]: 95.5%
- residual activity [3]: 98.9%
- residual activity [4]: 99.9%
- residual activity [5]: 55.9%
- residual activity [6]: 101%
- residual activity [7]: 105%
- residual activity [8]: 98.6%
- residual activity [9]: 94.6%
- residual activity [10]: 88.5%
- residual activity [11]: 93.2%
- residual activity [12]: 96.4%
- residual activity [13]: 104%
- residual activity [14]: 95.3%
- residual activity [15]: 103%
- residual activity [16]: 99.3%
- residual activity [17]: 107%
- residual activity [18]: 101%
- residual activity [19]: 93.5%
- residual activity [20]: 105%
- residual activity [21]: 112%
- residual activity [22]: 99.4%
- residual activity [23]: 101%
- residual activity [24]: 107%
- residual activity [25]: 91.8%
- residual activity [26]: 104%
- residual activity [27]: 112%
- residual activity [28]: 99.9%
- residual activity [29]: 95.1%
- residual activity [30]: 98.6%
- residual activity [31]: 113%
- residual activity [32]: 104%
- residual activity [33]: 108%
- residual activity [34]: 104%
- residual activity [35]: 91.4%
- residual activity [36]: 93.4%
- residual activity [37]: 99.2%
- residual activity [38]: 97.7%
- residual activity [39]: 99.3%
- residual activity [40]: 106%
- residual activity [41]: 106%

Compound: O=c1cc(N2CCOCC2)oc2c(-c3ccccc3)cccc12
- residual activity [1]: 91.4%
- residual activity [2]: 94.2%
- residual activity [3]: 104%
- residual activity [4]: 104%
- residual activity [5]: 93.4%
- residual activity [6]: 102%
- residual activity [7]: 91.1%
- residual activity [8]: 104%
- residual activity [9]: 107%
- residual activity [10]: 103%
- residual activity [11]: 97.1%
- residual activity [12]: 99.9%
- residual activity [13]: 104%
- residual activity [14]: 93.9%
- residual activity [15]: 97%
- residual activity [42]: 93%
- residual activity [16]: 96.5%
- residual activity [17]: 99.5%
- residual activity [18]: 99.5%
- residual activity [19]: 103%
- residual activity [20]: 96.2%
- residual activity [21]: 93.3%
- residual activity [23]: 101%
- residual activity [24]: 91.6%
- residual activity [25]: 92%
- residual activity [26]: 96.2%
- residual activity [27]: 88.5%
- residual activity [28]: 110%
- residual activity [29]: 100%
- residual activity [30]: 111%
- residual activity [31]: 87.7%
- residual activity [32]: 85.4%
- residual activity [33]: 96.9%
- residual activity [34]: 110%
- residual activity [35]: 95.6%
- residual activity [36]: 82.3%
- residual activity [37]: 99.2%
- residual activity [38]: 127%
- residual activity [39]: 109%
- residual activity [40]: 87.8%
- residual activity [41]: 103%

Compound: COc1cc2c(Nc3ccc(Br)cc3F)ncnc2cc1OCC1CCN(C)CC1
- residual activity [1]: 99.4%
- residual activity [2]: 93.2%
- residual activity [3]: 72.2%
- residual activity [4]: 102%
- residual activity [5]: 92.6%
- residual activity [6]: 96.4%
- residual activity [7]: 99.8%
- residual activity [8]: 94.4%
- residual activity [9]: 99.5%
- residual activity [11]: 104%
- residual activity [12]: 95.8%
- residual activity [13]: 92.6%
- residual activity [14]: 96.5%
- residual activity [15]: 122%
- residual activity [42]: 104%
- residual activity [16]: 102%
- residual activity [17]: 101%
- residual activity [18]: 88.1%
- residual activity [19]: 33.9%
- residual activity [20]: 101%
- residual activity [21]: 95.5%
- residual activity [22]: 102%
- residual activity [24]: 95.8%
- residual activity [25]: 100%
- residual activity [26]: 97.1%
- residual activity [27]: 96.1%
- residual activity [28]: 55%
- residual activity [29]: 48.2%
- residual activity [30]: 110%
- residual activity [31]: 91.8%
- residual activity [32]: 98.9%
- residual activity [33]: 101%
- residual activity [34]: 98.9%
- residual activity [35]: 43.7%
- residual activity [36]: 81.1%
- residual activity [39]: 97.9%
- residual activity [40]: 103%
- residual activity [41]: 97.7%

Compound: COc1cc2c(N3CCN(C(=O)Nc4ccc(OC(C)C)cc4)CC3)ncnc2cc1OCCCN1CCCCC1
- residual activity [1]: 98.7%
- residual activity [2]: 90.9%
- residual activity [3]: 104%
- residual activity [4]: 106%
- residual activity [5]: 99.5%
- residual activity [6]: 103%
- residual activity [7]: 101%
- residual activity [8]: 108%
- residual activity [9]: 99.3%
- residual activity [10]: 100%
- residual activity [11]: 102%
- residual activity [12]: 104%
- residual activity [13]: 96.4%
- residual activity [14]: 92.9%
- residual activity [15]: 105%
- residual activity [42]: 105%
- residual activity [16]: 106%
- residual activity [17]: 109%
- residual activity [18]: 96.2%
- residual activity [19]: 96.6%
- residual activity [20]: 104%
- residual activity [21]: 99.3%
- residual activity [22]: 101%
- residual activity [23]: 92.7%
- residual activity [24]: 106%
- residual activity [25]: 96%
- residual activity [26]: 105%
- residual activity [27]: 100%
- residual activity [28]: 99%
- residual activity [29]: 94.8%
- residual activity [30]: 120%
- residual activity [31]: 94.1%
- residual activity [32]: 100%
- residual activity [33]: 98.1%
- residual activity [34]: 98%
- residual activity [36]: 96.7%
- residual activity [37]: 91.5%
- residual activity [38]: 92.5%
- residual activity [39]: 102%
- residual activity [40]: 96.2%
- residual activity [41]: 97.9%

Compound: COc1cc2c(cc1OC)-c1[nH]nc(Nc3cccc(F)c3)c1C2
- residual activity [1]: 70.6%
- residual activity [2]: 102%
- residual activity [3]: 101%
- residual activity [4]: 93.7%
- residual activity [5]: 84.8%
- residual activity [6]: 75.9%
- residual activity [7]: 95.6%
- residual activity [8]: 92.4%
- residual activity [9]: 98%
- residual activity [10]: 97.6%
- residual activity [11]: 99.9%
- residual activity [12]: 94%
- residual activity [13]: 101%
- residual activity [14]: 105%
- residual activity [15]: 98.6%
- residual activity [42]: 89.4%
- residual activity [16]: 97.1%
- residual activity [17]: 96%
- residual activity [18]: 95.5%
- residual activity [19]: 94.2%
- residual activity [20]: 95.4%
- residual activity [21]: 99.7%
- residual activity [23]: 99.5%
- residual activity [24]: 95.8%
- residual activity [25]: 92.6%
- residual activity [26]: 83%
- residual activity [27]: 95.3%
- residual activity [28]: 96.1%
- residual activity [29]: 73.4%
- residual activity [30]: 99.8%
- residual activity [31]: 94.3%
- residual activity [32]: 89.9%
- residual activity [33]: 96.6%
- residual activity [34]: 86.8%
- residual activity [35]: 25%
- residual activity [37]: 83.6%
- residual activity [38]: 97.8%
- residual activity [39]: 92.7%
- residual activity [40]: 91.5%
- residual activity [41]: 81.3%
